According to patent publication US20180353512A1, “COMBINATION THERAPIES FOR TREATING B-CELL MALIGNANCIES” (GILEAD SCIENCES, INC., priority 2015, published 2018):
Where two headings read alike, the source gives them in different places.

How the values were obtained:
p-S6 (S235/236) = test: Western Blot of TMD8 xenograft tumor samples; format: in vivo, mice; details: single agent; PI3Kδ inhibitor 5 mg/kg, Compound B 10 mg/kg
Description: (§1) Tumor samples obtained from the study were lysed and Western Blot was performed on the samples to determine the level of BTK and S6 phosphorylation, a downstream effector of PI3K signaling. Western Blots were performed according to the Western Blot procedure described in Example 3B above, using antibodies against p-S6 (S235/236), p-BTK (Y223), BTK and actin. Protein levels were determined using Peggy Sue (ProteinSimple) automated Western Blot system. Normalized AUC were determined for each of the treatment groups: p-BTK (Y223) was normalized to total BTK protein, and p-S6 (S235/236) was normalized to actin.

p-BTK (Y223) = test: Western Blot of TMD8 xenograft tumor samples; format: in vivo, mice; details: Compound B 10 mg/kg; normalized to total BTK
Description: as §1

c-Myc = c-Myc RNAseq and western blot in ABC-DLBCL cell lines; format: cell-based
Description: Gene expression levels and mutations were determined by […]. The following bioinformatics platforms were used to analyze the sequence reads: DNA sequencing reads were aligned to human reference genome by BWA. Single nucleotide variants were identified using VarScan and were annotated using SnpEff Putative somatic mutations were prioritized by mutant allele frequency, recurrence and predicted functional impact. RNA sequencing reads were aligned to human reference genome using STAR and RNA abundance was quantified using RSEM. The Bioconductor package edgeR was used to normalize sequence count and limma was used to conduct differential gene expression analysis.
Protein expression was measured using Simple Western, SDS/PAGE and Western Blot or Peggy Sue (ProteinSimple), generally according to the procedures described above in Example 3B. Primary antibodies used to test phosphorylated protein or total protein levels include antibodies against: p-AKT (S473), p-AKT (T308), AKT, p-ERK (T202/Y204), p-S6 (S235/236), S6, p-PDK1 (S241), p-PLCγ2 (Y1217), p-GSK3β (S9), p-STAT3 (Y705), p-IκBα (S32), IκBα, p-SYK (Y525/526), p-BTK (Y223), PI3Kγ, PTEN, and actin.

TMD8^R cells = test: Apoptosis, Annexin V assay and propidium iodide by flow cytometry; format: cell-based; details: Annexin V at 48 h, Idelalisib=1 μM
Description: (§2) Growth inhibition to Idelalisib or other inhibitors was assessed using CellTiter-Glo viability assay at 96 h. […] Cell lines were analyzed by whole exome sequencing, RNASeq, and phosphoproteomics. Protein expression was measured using Simple Western and SDS/PAGE and western blot. Caspase 3/7 was measured using Caspase-Glo 3/7 assay; apoptosis was measured with Annexin V assay and propidium iodide by flow cytometry.

[1] = cited from earlier work
[2] = test system: FSCCL^R clone 3 (PI3KCA P539R); test: CellTiter Glo viability assay after 96 h; format: cell-based; details: single agent, read-out: EC50
Description: (§3) Idelalisib resistance was established by continuous passaging of a clonal isolate of WSU-FSCCL in the presence of 1 μM idelalisib; clonal isolates from a passage-matched line (FSCCL^S) and idelalisib-resistant line (FSCCL^R) were generated through 2 rounds of single-cell-limiting dilution. Growth inhibition to idelalisib or other inhibitors was performed after 96 h using CellTiter Glo viability assay. Characterization of mutations and gene expression were identified by whole exome sequencing and RNA-Seq, respectively. Whole cell lysates were analyzed by western blots.

FSCCL^R SFK^HIGH = test: CellTiter Glo viability assay after 96 h; format: cell-based
Description: as §3

[3] = test system: FSCCL^R clone 1 (PI3KCA E970K); test: CellTiter Glo viability assay after 96 h; format: cell-based; details: single agent, read-out: EC50
Description: as §3

FSCCL (WSU-FSCCL) = test: CellTiter Glo viability assay after 96 h; format: cell-based; details: read-out: EC50, cell viability
Description: as §3

FSCCL^S = test: CellTiter Glo viability assay after 96 h; format: cell-based
Description: as §3

FSCCL^R = test: CellTiter Glo viability assay after 96 h; format: cell-based; details: FIG. 16, read-out: EC50, cell viability
Description: as §3

[4] = test system: FSCCL^R clone 2 (PI3KCA N345K); test: CellTiter Glo viability assay after 96 h; format: cell-based; details: single agent, read-out: EC50
Description: as §3

TMD8 = test: CellTiter-Glo viability assay at 96 h (Example 5); format: cell-based; details: Homo sapiens
Description: as §2
(§4) Cell viability EC50 was determined using a sigmoidal dose-response (variable slope) curve generated from quadruplicate samples. Statistical significance was determined using the student's t-test for cell viability and two-tailed paired t-test for apoptosis experiments in Prism (GraphPad).

parental TMD-8 = test: 96-hour Cell Titer Glo viability assay, parental line; design: Emax: dose or concentration left out as unconfirmed; details: Homo sapiens
[5] = test system: TMD8^R (Idelalisib-resistant line); test: CellTiter-Glo viability assay at 96 h; format: cell-based; details: TMD8^R
Description: as §2, §4
Idelalisib-resistant (TMD8^R) cell line and passage-matched Idelalisib-sensitive (TMD8^S) cell line were generated according to the procedure described in Example 5 above. To characterize the resistant cells, cell viability assays, RNASeq of multidrug resistance (MDR) family of ABC transporter genes (N=33), apoptosis assays, and phosphoprotein analysis were performed. Cell viability was measured using CellTiter-Glo, as described in Example 1A above. Western blot and protein level analysis were performed after treatment with 420 nM idelalisib, 320 nM Compound B and combination thereof, using Peggy Sue (ProteinSimple) automated Western Blot system. Protein concentration (pg/μL) was quantitated using recombinant protein standards. Normalized AUC were determined for each of the treatment groups, normalized to actin. Apoptosis was assessed by propidium iodide and Annexin V/FITC staining and measured by flow cytometry, as described in Example 1A above. Western Blot with anti-p-AKT (S473) antibody and Peggy Sue were used to determine the phosphorylation state of downstream signaling components.

## CC#CC(=O)N1CC[C@@H](n2c(=O)n(-c3ccc(Oc4ccccc4)cc3)c3c(N)ncnc32)C1 [Compound B, 6-amino-9-[(3R)-1-(2-butynoyl)-3-pyrrolidinyl]-7-(4-phenoxyphenyl)-7,9-dihydro-8H-purin-8-one]
p-S6 (S235/236)
  effect on p-S6 in tumors: did not have an effect
p-BTK (Y223)
  reduction of p-BTK in tumors: 35%

## CCC(Nc1ncnc2[nH]cnc12)c1nc2cccc(F)c2c(=O)n1-c1ccccc1 (stereo not drawn) [Idelalisib, 2-(1-((9H-Purin-6-yl)amino)propyl)-5-fluoro-3-phenylquinazolin-4(3H)-one]
c-Myc; 500 nM idelalisib, sensitive cell lines (TMD8 and Ri-1)
  c-Myc mRNA (RNAseq): c-Myc mRNA downregulation
c-Myc; TMD8^S
  c-Myc (western blot): inhibited
TMD8^R cells; GSK-2334470=1 μM, vehicle control 22%
  apoptosis: 24%
TMD8^R cells; MK-2206=1 μM, vehicle control 24%
  apoptosis: 21%
[1]
  clinical Cmin: 103 nM
[1]; clinical
  Cmax: 591 nM
[2]
  EC50: > 3000 nM
FSCCL^R SFK^HIGH; read-out: EC50 IDELA (+Dasatinib 10 nM)
  EC50: 1880 nM
FSCCL^R SFK^HIGH; read-out: EC50 IDELA (+ENTO 680 nM)
  EC50: 2270 nM
[3]
  EC50: > 3000 nM
FSCCL (WSU-FSCCL)
  EC50: 140 nM
FSCCL^S; FIG. 16, read-out: EC50, cell viability
  EC50: 100 nM
FSCCL^S; PI3KCA WT, Table 13, single agent, read-out: EC50
  EC50: 110 nM
FSCCL^S; Table 14, single agent, read-out: EC50
  EC50: 213 nM
FSCCL^S; Table 15, single agent, read-out: EC50
  EC50: 213 nM
FSCCL^R
  EC50: > 10000 nM
[4]
  EC50: > 3000 nM
TMD8
  EC50: 42 nM
Parental TMD-8; TMD8, read-out: EC50, cell viability
  EC50: 54 nM
Parental TMD-8; TMD8, read-out: Emax, growth inhibition
  Emax: 86%
[5]; at 1 μM, read-out: Growth inhibition
  inhibition at 1 µM: 19%
[5]; single agent, read-out: EC50, cell viability
  EC50: > 10000 nM
